This assay concerns the target bovine serum albumine (Bos taurus, UniProt P02769). Put plainly: Inhibition of furosine formation (non-enzymatic glycosylation of BSA by glucose, furosine determined by HPLC). The conditions noted are these: 672 h, pH 7.3, read-out: Inhibition rate (%).

bovine serum albumine, sequence (P02769 25-607): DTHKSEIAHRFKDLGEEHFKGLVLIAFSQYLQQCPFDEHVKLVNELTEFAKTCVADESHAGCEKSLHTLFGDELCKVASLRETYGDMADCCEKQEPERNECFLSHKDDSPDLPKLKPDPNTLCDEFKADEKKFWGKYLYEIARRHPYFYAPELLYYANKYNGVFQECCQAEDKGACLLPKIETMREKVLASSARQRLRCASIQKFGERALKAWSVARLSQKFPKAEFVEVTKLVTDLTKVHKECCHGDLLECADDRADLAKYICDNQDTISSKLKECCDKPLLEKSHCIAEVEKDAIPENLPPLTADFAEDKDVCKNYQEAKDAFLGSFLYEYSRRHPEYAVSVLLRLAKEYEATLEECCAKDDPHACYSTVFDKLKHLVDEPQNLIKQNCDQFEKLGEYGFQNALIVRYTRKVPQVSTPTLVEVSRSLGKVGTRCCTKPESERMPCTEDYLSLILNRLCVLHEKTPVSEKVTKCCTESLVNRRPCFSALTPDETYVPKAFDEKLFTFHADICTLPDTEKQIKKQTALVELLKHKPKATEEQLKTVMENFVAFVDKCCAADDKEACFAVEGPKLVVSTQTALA
Experimental: The sample solutions were kept for 4 weeks at 37 °C, and the amount of furosine which was formed by non-enzymatic glycosylation was determined by HPLC according to the method of Schleicher et al. (J. Clin. Biochem., 19:81-87 (1981).] Thus, the sample solutions after reaction were dialyzed, and aliquots of 1 ml were lyophylized and then hydrolyzed by the addition of 1 ml of 6 N hydrochloric acid followed by heating at 100 °C for 20 hours. After removal of hydrochloric acid by evaporation, 1 ml of water was added to each sample, and the samples were subjected to filtration using a filter with the pore size of 0.45 µm. The filtrate was used as the sample for HPLC. ODS-120T (Toso) was used for the column and 7 mM phosphoric acid solution was used as the eluant. The absorbance peak whose ratio of peak area at 280 mm/254 mm was 3.9/1 was regarded as the peak corresponding to furosine.
Upon the area of the peak of furosine of each sample, the inhibition rate of furosine formation by the test compound was calculated as follows. Inhibition rate (%)=(c-d)+(c-n)×100 c; peak area of furosine of the control sample d; peak area of furosine of the test sample n; peak area of furosine of the normal sample

What is called inhibition is how much of the control response was suppressed. Take `O=C(O)c1cc(O)c2c(n1)C(=O)C=C(O)C2=O` [T-1]: the inhibition at 5000 µM amounted to 77.8%.

In the case of `Oc1ccc(O)c2c(O)cc(C(F)(F)F)nc12` [T-2], the inhibition at 5000 µM was found to be 79.9%.

With `CCOC(=O)c1cnc2c(c1O)C(=O)C=CC2=O` [T-8], the inhibition at 5000 µM stood at 96.9%.

With `Cc1cc(O)c2c(n1)C(=O)C=CC2=O` [T-9], the inhibition at 5000 µM is 99.5%.

In the case of `O=C(O)c1cc(O)c2c(n1)C(=O)C=CC2=O` [T-6], the inhibition at 5000 µM is 76%.

`O=C1C=CC(=O)c2c(O)cc(C(F)(F)F)nc21` [T-3]: the inhibition at 5000 µM was 73.4%.

Take `O=C(O)c1cnc2c(c1O)C(=O)C=CC2=O` [T-7]: the inhibition at 5000 µM was found to be 79.9%.

Regarding `O=C(O)c1cc(O)c2c(O)ccc(O)c2n1` [T-5], the inhibition at 5000 µM was 78.9%.

As to `O=c1ccc2[n+]([O-])c3ccc(O)cc3oc-2c1` [T-10, resazurin], the inhibition at 5000 µM was found to be 73.8%.

Turning to `COC(=O)c1cc(O)c2c(n1)C(=O)C=CC2=O` [T-4], the inhibition at 5000 µM came out at 92.5%.

Turning to `N=C(N)NN` [Aminoguanidine, aminoguanidine, reference compound], the inhibition at 5000 µM came to 7.5%.

The values above are taken from patent publication EP0433679A2, “Pharmaceutical compositions for inhibition of maillard's reaction” (Senju Pharmaceutical Co., Ltd., priority 1989, dated 1991).
